In US9526717B2, “Composition for treating immune diseases containing daurinol compound as active ingredient” (THE CATHOLIC UNIVERSITY OF KOREA INDUSTRY-ACADEMIC …, priority 2013, dated 2016):

Legend:
[1] = tested on: animal model with collagen induced arthritis (CIA); assay: Histological examination of joints of CIA animals; format: in vivo, mouse; conditions: injected intravenously, three weeks after, H&E, Toluidine blue, Safranin O
splenocyte cell line = assay: TNF-α secretion of LPS treated splenocyte cell line (sandwich ELISA); format: cell-based; conditions: 20 μM daurinol; LPS 100 ng/mL
Description: For this purpose, a splenocyte cell line was treated with anti-CD3 antibodies (0.5 μg/mL) to induce the secretion of IL-17, or treated with LPS (100 ng/mL) to induce the secretion of TNF-α. Then, the splenocyte cell line was treated with daurinol at concentrations of 0.5 μM, 2.5 μM, and 20 μM, and the supernatants were combined and the amount of IL-17 and TNF-α were examined by sandwich ELISA assay. The resultant was reacted in a 96-well plate with monoclonal anti-IL-17 or anti-TNF-α (2 μg/mL) at 4° C. overnight, and upon reaction, the non-specific binding was blocked using a blocking solution (1% BSA/PBST). IL-17 recombinant or TNF-α in a half amount was continuously diluted and used as standards, and the supernatant of cell culture was reacted at room temperature for 2 hours. Then, the biotinylated anti-IL-17 was reacted at room temperature for 2 hours, washed 4 times, and added with ExtraAvidin-alkaline phosphatase conjugate after dilution, and reacted at room temperature for 2 hours. Subsequently, PNPP/DEA solution was added thereto to fix color and absorbance was measured at 405 nm.

phospho m-TOR = assay: Western blot of phospho m-TOR in CD4+T cells; format: cell-based; conditions: CD4+T cells of normal mouse, daurinol 5 μM, anti-CD3 0.5 μg/mL, 3 days
Description: For the observation of changes in intracellular cell signaling factors treated with daurinol, a western blot analysis was performed. For this purpose, CD4+T cells were isolated from a normal mouse, treated with daurinol (5 μM) in a condition already treated with anti-CD3 antibodies (0.5 μg/mL), cultured for 3 days, and the cells were dissolved and proteins were extracted therefrom. Then, the extracted proteins were subjected to SDS-PAGE electrophoresis, and the proteins were electrically transferred onto a nitrocellulose membrane, subjected to a blocking reaction with 5% skim milk for 1 hour, reacted by attaching primary antibodies to STAT3, STAT3p705, STAT3p727, and phospho m-TOR thereto, reacting again by attaching secondary antibodies to the same, and sensitized onto a Kodak X-ray using enhanced chemilunimoecence (ECL), and thereby the protein expression levels of the genes were analyzed.

[2] = tested on: animal model with graft versus host disease; assay: Therapeutic effect in animal model with graft versus host disease (GVHD); format: in vivo, mouse; conditions: GVHD Balb/c recipient mice, daurinol 20 mg/kg 3 times a week, total of 9 times, vs GVHD control group
Source text: In order to confirm whether daurinol can be actually applied to the treatment of a different immune disease, the therapeutic effects of daurinol was examined using an animal model with graft versus host disease. First, for the construction of an animal with graft versus host disease, a recipient mouse, Balb/c(H-2k/d), was exposed to total body irradiation (TBI) (800 cGy). Then, hematopoietic stem cells and splenocytes were isolated from the femur and the tibia of the donor mouse and the hematopoietic stem cells (5×10^6 cells) and the splenocytes (1×10^6 cells) were transplanted to a recipient mouse Balb/c(H-2k/d). After the transplantation, daurinol (20 mg/kg of weight) was injected 3 times a week for a total of 9 times, and in particular, daurinol was used after dissolving in a mixed solvent (DMSO:Crernophor EL:DW=1:1:8). The experiment was performed and analyzed for the experimental groups in which each group consisted of five mice.

CD4+ T cells = assay: Inhibition of T cell proliferation in allogenic reaction in vitro; format: cell-based, mouse; conditions: daurinol 0.5, 2, 10 and 20 μM
Description: For the confirmation of the effect of the daurinol compound on the inhibition of T cell proliferation and the expression amount of IL-17, the CD4+ T cells (2×10^5 cells) of a normal recipient (Balb/c, responder), and the T cell-removed splenocytes (2×10^5 cells) derived from a recipient (homogenic) or the splenocytes (2×10^5 cells) derived from a donor (C57BL/6, stimulator, allogenic) exposed to irradiation were added to each well of a 96-well round bottom plate, mixed, and cultured in vitro. In particular, the T cell proliferation and the secretion of IL-17 when an allogenic reaction was untreated with daurinol or treated with daurinol at 0.5 μM, 2 μM, 10 μM, and 20 μM, respectively, were observed.

VEGF = VEGF expression in the intestinal tissues of IBD mouse model; format: in vivo; conditions: animal (mouse) model with inflammatory bowel disease
Source text: (§1) For the confirmation of the effect of the daurinol compound of the present invention on the treatment of inflammatory bowel disease, the present inventors first constructed an animal model with induced inflammatory bowel disease. For the experimental model, C57BL/6(H-2kb) mice were used. For the construction of an animal model with induced inflammatory bowel disease, the mice were fed with 3.5% dextran sulfate sodium (DSS) and water for a week, thereby preparing an animal model with induced inflammatory bowel disease.
(§2) The present inventors divided the experimental animals into a normal control group, a group of an animal model with induced inflammatory bowel disease, and a group of an animal model with induced inflammatory bowel disease treated with daurinol or a TNF-α inhibitor, and the group treated with daurinol was administered orally and intrarectally with daurinol (20 mg/kg) from the 4th day after the induction with the disease.

[3] = tested on: mouse with induced inflammatory bowel disease (IBD); assay: Antibodies expressed in the sera of IBD animal model; format: in vivo; conditions: IBD mice treated with daurinol
Source text: as §1, §2
Sera were isolated from a mouse with induced inflammatory bowel disease (IBD), and mice treated with daurinol and TNF-α inhibitor, respectively. The levels of IL-17, IFNγ, IL-6, and the like, which are inflammatory cytokines, in the isolated sera were measured by ELISA assay.
Accordingly, since daurinol can reduce not only the expression of the inflammatory cytokines but also the formation of antibodies in an animal model with inflammatory bowel disease, daurinol can inhibit and control the immune response to autoantibodies and the B cell-related inflammation responses.

[4] = tested on: splenocytes of an animal model with lupus; assay: Th17/Treg activity by flow cytometry in splenocytes of animal model with lupus; format: cell-based; conditions: daurinol 1 μM, anti-CD3 0.5 μg/mL, three days
Description: Finally, for the confirmation of the controlling the activity of Th17/Treg cells, the splenocytes of an animal model with lupus were culture for three days after treating with daurinol (1 μM) and anti-CD3 (0.5 μg/mL), and the activity of Th17/Treg cells being controlled by daurinol was evaluated by flow cytometry.

SMILES: COc1cc2c(-c3ccc4c(c3)OCO4)c3c(cc2cc1O)COC3=O [daurinol]
- degree of destruction of joints and cartilage [1]: not exhibited to be severe
- secretion of TNF-α decreased by (splenocyte cell line): about 40%
- expression of phospho m-TOR (phospho m-TOR): significant decrease
- degree of disease [2]: improvement in the degree of disease
- degree of survival [2]: maintenance of the degree of survival for 30 days
- T cell proliferation (CD4+ T cells): inhibited T cell proliferation in a dose-dependent manner
- VEGF expression in the intestinal tissues (VEGF): significantly inhibited the VEGF expression
- level of IgG1 antibodies in sera [3]: reduced the levels
- level of IgG2 antibodies in sera [3]: reduced the levels
- level of IgG3 antibodies in sera [3]: reduced the levels
- level of IgG antibodies in sera [3]: reduced the levels
- Th17 activity (flow cytometry) [4]: inhibit the Th17 activity
- activity of Foxp3+ Treg cells (flow cytometry) [4]: induce the activity of Foxp3+ Treg cells
